# Results from ChEMBL document CHEMBL1139052, “Synthesis of a novel inhibitor against MRSA and VRE: preparation from zerumbone ring opening material showing histidine-kinase inhibition” (Bioorg Med Chem Lett, 2007).
# Values joined by “and” are separate entries in the source; they are usually repeats but may differ in a detail not shown here. Identical values can stand only once.
# Key:
# [1] = biological target: T1, Sensor histidine kinase WalK (Bacillus subtilis (strain 168), UniProt Q45614); assay: Inhibition of Bacillus subtilis histidine kinase YycG
# T1 sequence (Q45614 whole entry): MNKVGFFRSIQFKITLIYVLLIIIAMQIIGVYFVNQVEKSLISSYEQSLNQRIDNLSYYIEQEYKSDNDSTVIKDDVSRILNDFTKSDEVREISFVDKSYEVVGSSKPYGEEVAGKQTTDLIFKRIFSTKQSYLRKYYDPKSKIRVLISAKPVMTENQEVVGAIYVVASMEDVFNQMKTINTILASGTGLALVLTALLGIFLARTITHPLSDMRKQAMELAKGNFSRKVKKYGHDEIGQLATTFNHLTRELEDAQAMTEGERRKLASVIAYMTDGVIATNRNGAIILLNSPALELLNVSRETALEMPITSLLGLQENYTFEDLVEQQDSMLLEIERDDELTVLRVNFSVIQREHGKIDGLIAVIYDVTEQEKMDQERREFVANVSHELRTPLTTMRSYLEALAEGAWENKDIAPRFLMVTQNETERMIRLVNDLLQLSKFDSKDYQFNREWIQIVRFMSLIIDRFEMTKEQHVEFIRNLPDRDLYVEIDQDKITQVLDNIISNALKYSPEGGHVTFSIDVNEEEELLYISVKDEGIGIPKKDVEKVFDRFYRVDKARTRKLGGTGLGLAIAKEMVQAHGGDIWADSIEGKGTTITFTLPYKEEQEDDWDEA
# [2] = system: Enterococcus faecalis; assay: Antibacterial activity against vancomycin-resistant Enterococcus faecalis NCTC-12201 after 18 hrs by broth microdilution method; type: functional
# [3] = system: Staphylococcus aureus; assay: Antibacterial activity against methicillin-resistant staphylococcus aureus 870307 after 18 hrs by broth microdilution method; type: functional
SMILES,IC50 [1],MIC [2] [µg/mL],MIC [3] [µg/mL]
COC(=O)[C@H](CCSC)NC(=O)/C=C/C(C)(C)C/C=C(\C)CC/C=C(\C)Br,> 1090 µM,> 100,> 100
COC(=O)[C@H](CCC(N)=O)NC(=O)/C=C/C(C)(C)C/C=C(\C)CC/C=C(\C)Br,1090 µM,> 100,> 100
CCCCCCCCN(CCCCCCCC)C(=O)/C=C/C(C)(C)C/C=C(\C)CC/C=C(\C)Br,> 928 µM,> 100,> 100
C/C1=C\CC(C)(C)/C=C/C(=O)/C(C)=C/CC1 [ZERUMBONE],> 2290 µM,> 100,> 100
C/C(Br)=C\CC/C(C)=C/CC(C)(C)/C=C/C(=O)O,63.4 µM and 63.5 µM,> 100,> 100
C/C(Br)=C\CC/C(C)=C/CC(C)(C)/C=C/C(=O)N[C@@H](CC(=O)O)C(=O)O,< 581 µM,> 100,> 100
C/C(Br)=C\CC/C(C)=C/CC(C)(C)/C=C/C(=O)N[C@@H](Cc1ccccc1)C(=O)O,< 541 µM,> 100,> 100
COC(=O)[C@H](Cc1c[nH]c2ccccc12)NC(=O)/C=C/C(C)(C)C/C=C(\C)CC/C=C(\C)Br,> 970 µM,> 100,> 100
C/C(Br)=C\CC/C(C)=C/CC(C)(C)/C=C/C(=O)N[C@@H](Cc1cnc[nH]1)C(=O)O,< 553 µM,> 100,> 100
C/C(Br)=C\CC/C(C)=C/CC(C)(C)/C=C/C(=O)N[C@@H](CC(C)C)C(=O)O,> 1170 µM,> 100,> 100
C/C(Br)=C\CC/C(C)=C/CC(C)(C)/C=C/C(=O)N[C@H](C(=O)O)C(C)C,< 603 µM,> 100,> 100
CCCCCCCCOC(=O)/C=C/C(C)(C)C/C=C(\C)CC/C=C(\C)Br,> 1170 µM,> 100,> 100
COC(=O)/C=C/C(C)(C)C/C=C(\C)CC/C=C(\C)Br,> 1520 µM,> 100,> 100
CCCCN(CCCC)C(=O)/C=C/C(C)(C)C/C=C(\C)CC/C=C(\C)Br,> 1170 µM,> 100,> 100
COC(=O)CNC(=O)/C=C/C(C)(C)C/C=C(\C)CC/C=C(\C)Br,> 1290 µM,> 100,> 100
C/C(Br)=C\CC/C(C)=C/CC(C)(C)/C=C/C(=O)N[C@H](C(=O)O)[C@@H](C)O,> 1200 µM,> 100,> 100
CC[C@H](C)[C@H](NC(=O)/C=C/C(C)(C)C/C=C(\C)CC/C=C(\C)Br)C(=O)OC,> 1130 µM,> 100,> 100
COC(=O)[C@H](Cc1cnc[nH]1)NC(=O)/C=C/C(C)(C)C/C=C(\C)CC/C=C(\C)Br,> 1070 µM,> 100,> 100
COC(=O)[C@@H]1CCCN1C(=O)/C=C/C(C)(C)C/C=C(\C)CC/C=C(\C)Br,< 586 µM,> 100,> 100
CC[C@H](C)[C@H](NC(=O)/C=C/C(C)(C)C/C=C(\C)CC/C=C(\C)Br)C(=O)O,> 1170 µM,> 100,> 100
COC(=O)[C@H](Cc1ccc(O)cc1)NC(=O)/C=C/C(C)(C)C/C=C(\C)CC/C=C(\C)Br,> 1020 µM,> 100,> 100

SMILES,IC50 [1],MIC [2] [µg/mL],MIC [3] [µg/mL]
C/C(Br)=C\CC/C(C)=C/CC(C)(C)/C=C/C(=O)N1CCC[C@H]1C(=O)O,< 606 µM,> 100,> 100
C/C(Br)=C\CC/C(C)=C/CC(C)(C)/C=C/C(=O)NCC(=O)O,< 671 µM,> 100,> 100
C/C(Br)=C\CC/C(C)=C/CC(C)(C)/C=C/C(=O)N[C@@H](CCC(=O)O)C(=O)O,< 563 µM,> 100,> 100
COC(=O)[C@H](CCC(=O)O)NC(=O)/C=C/C(C)(C)C/C=C(\C)CC/C=C(\C)Br,> 1090 µM,> 100,> 100
COC(=O)[C@@H](NC(=O)/C=C/C(C)(C)C/C=C(\C)CC/C=C(\C)Br)C(C)C,> 1170 µM,> 100,> 100
C/C(Br)=C\CC/C(C)=C/CC(C)(C)/C=C/C(=O)N[C@@H](CO)C(=O)O,< 621 µM,> 100,> 100
C/C(Br)=C\CC/C(C)=C/CC(C)(C)/C=C/C(=O)N[C@@H](CCC(N)=O)C(=O)O,< 564 µM,> 100,> 100
CSCC[C@H](NC(=O)/C=C/C(C)(C)C/C=C(\C)CC/C=C(\C)Br)C(=O)O,< 560 µM,> 100,> 100
C/C(Br)=C\CC/C(C)=C/CC(C)(C)/C=C/CO,> 1660 µM,> 100,> 100
COC(=O)[C@H](C)NC(=O)/C=C/C(C)(C)C/C=C(\C)CC/C=C(\C)Br,> 1250 µM,> 100,> 100
COC(=O)[C@H](CC(=O)O)NC(=O)/C=C/C(C)(C)C/C=C(\C)CC/C=C(\C)Br,> 1130 µM,> 100,> 100
C/C(Br)=C\CC/C(C)=C/CC(C)(C)/C=C/C(=O)N[C@@H](Cc1ccc(O)cc1)C(=O)O,< 523 µM,> 100,> 100
COC(=O)[C@@H](NC(=O)/C=C/C(C)(C)C/C=C(\C)CC/C=C(\C)Br)[C@@H](C)O,> 1160 µM,> 100,> 100
COC(=O)[C@H](CO)NC(=O)/C=C/C(C)(C)C/C=C(\C)CC/C=C(\C)Br,< 600 µM,> 100,> 100
COC(=O)[C@H](CC(C)C)NC(=O)/C=C/C(C)(C)C/C=C(\C)CC/C=C(\C)Br,> 1130 µM,> 100,> 100
C/C(Br)=C\CC/C(C)=C/CC(C)(C)/C=C/C(=O)N[C@@H](Cc1c[nH]c2ccccc12)C(=O)O,43.9 µM,50,100
COC(=O)[C@H](Cc1ccccc1)NC(=O)/C=C/C(C)(C)C/C=C(\C)CC/C=C(\C)Br,> 1050 µM,> 100,> 100
COC(=O)[C@H](CC(N)=O)NC(=O)/C=C/C(C)(C)C/C=C(\C)CC/C=C(\C)Br,1130 µM,> 100,> 100
C/C(Br)=C\CC/C(C)=C/CC(C)(C)/C=C/C(=O)N1CCCCC1,> 1310 µM,> 100,> 100
C/C(Br)=C\CC/C(C)=C/CC(C)(C)/C=C/C(=O)N[C@@H](CC(N)=O)C(=O)O,< 582 µM,> 100,> 100
C/C(Br)=C\CC/C(C)=C/CC(C)(C)/C=C/C(=O)N[C@@H](C)C(=O)O,< 647 µM,> 100,> 100
